Experimental data as given in patent publication US4508704A, “Radioactive metals complexed with phosphonate derivatives of bicycloheptane bis(alkylamines)” (The Dow Chemical Company, priority 1984, dated 1985).

What was measured:
[1] = cited from earlier work
[2] = Biodistribution in several tissues in rats, NaI scintillation counter; format: in vivo; conditions: 2 hours, ~1 mCi, tail vein
Procedure: The Tc-complex of Example 1 (50 μl, ~1 mCi) was injected into the tail vein of a series of rats. The animals were killed after 2 hours and the radiation from several tissues was quantitated using a NaI scintillation counter.

[3] = Biodistribution in several tissues in rabbits, NaI scintillation counter; format: in vivo; conditions: 3 hours after injection, ear vein
Procedure: The complex of Example 1 was injected in the ear vein of a series of rabbits. The rabbits were killed 3 hours after injection. The radiation of several tissues was quantified by counting using a NaI scintillation counter.

Compound	accumulation by bone ([1]; after intravenous administration)	biological half life ([1]; in vivo)	Percent Dose/Organ, Blood [2] [Percent Dose/Organ]	Percent Dose/Organ, Skeleton [2] [Percent Dose/Organ]	Percent Dose/Organ, Urine [2] [Percent Dose/Organ]	Ratio Bone/blood [2]	Ratio Bone/muscle [2]	Ratio Femur/blood [3]	Ratio Femur/muscle [3]	radiation in Blood [3]	radiation in Femur [3]	radiation in Liver [3]	radiation in Muscle [3]
[85Sr] [Sr-85, Strontium-85]	rapidly accumulated by bone	~ 800 days	–	–	–	–	–	–	–	–	–	–	–
methylenediphosphonate [Tc-MDP]	–	–	0.27	39.4	50.9	146	150	44	114	0.13	5.7	0.11	0.05
